From ChEMBL document CHEMBL1909046, “DrugMatrix in vitro pharmacology data”

What was measured:
[1] = DRUGMATRIX: Calcium Channel Type L, Dihydropyridine radioligand binding (ligand: [3H] Nitrendipine); format: cell membranes, Rattus norvegicus, Wistar, Cerebral cortex, Membrane; settings: Not Active = under 50% inhibition at 10 µM
[2] = molecular target: Carbonic anhydrase 2 (Homo sapiens, UniProt P00918); assay: DRUGMATRIX: Carbonic Anhydrase II enzyme inhibition (substrate: 4-Nitrophenyl acetate (4-NPA)); format: tissue-based, Erythrocyte; settings: erythrocyte; Not Active = under 50% inhibition at 10 µM
[3] = molecular target: T1, Alpha-1D adrenergic receptor (Homo sapiens, UniProt P25100); format: cell membranes, HEK293, Membrane; settings: hek293; further: in other assays of this panel Not Active means under 50% inhibition at 10 µM
T1 sequence (P25100 whole entry): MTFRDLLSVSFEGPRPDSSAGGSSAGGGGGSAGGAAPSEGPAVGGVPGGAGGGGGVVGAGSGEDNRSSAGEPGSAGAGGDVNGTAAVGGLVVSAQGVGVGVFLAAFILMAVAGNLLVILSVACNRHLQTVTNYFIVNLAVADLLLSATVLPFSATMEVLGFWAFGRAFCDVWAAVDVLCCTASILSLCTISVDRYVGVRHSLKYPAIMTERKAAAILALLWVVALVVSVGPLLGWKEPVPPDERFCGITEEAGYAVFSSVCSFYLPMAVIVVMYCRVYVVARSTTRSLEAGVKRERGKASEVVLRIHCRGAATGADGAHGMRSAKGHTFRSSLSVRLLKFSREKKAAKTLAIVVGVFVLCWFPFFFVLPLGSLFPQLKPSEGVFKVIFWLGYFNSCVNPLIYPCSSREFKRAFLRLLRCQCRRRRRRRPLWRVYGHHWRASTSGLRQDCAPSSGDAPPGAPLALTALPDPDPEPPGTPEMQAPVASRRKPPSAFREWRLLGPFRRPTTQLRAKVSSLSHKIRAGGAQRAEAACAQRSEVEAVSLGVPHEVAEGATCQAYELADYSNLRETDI

[4] = molecular target: T2, Progesterone receptor (Bos taurus, UniProt Q690N0); assay: DRUGMATRIX: Progesterone radioligand binding (ligand: [3H] R-5020); format: tissue-based, Uterus; settings: Not Active = under 50% inhibition at 10 µM
T2 sequence (Q690N0 whole entry): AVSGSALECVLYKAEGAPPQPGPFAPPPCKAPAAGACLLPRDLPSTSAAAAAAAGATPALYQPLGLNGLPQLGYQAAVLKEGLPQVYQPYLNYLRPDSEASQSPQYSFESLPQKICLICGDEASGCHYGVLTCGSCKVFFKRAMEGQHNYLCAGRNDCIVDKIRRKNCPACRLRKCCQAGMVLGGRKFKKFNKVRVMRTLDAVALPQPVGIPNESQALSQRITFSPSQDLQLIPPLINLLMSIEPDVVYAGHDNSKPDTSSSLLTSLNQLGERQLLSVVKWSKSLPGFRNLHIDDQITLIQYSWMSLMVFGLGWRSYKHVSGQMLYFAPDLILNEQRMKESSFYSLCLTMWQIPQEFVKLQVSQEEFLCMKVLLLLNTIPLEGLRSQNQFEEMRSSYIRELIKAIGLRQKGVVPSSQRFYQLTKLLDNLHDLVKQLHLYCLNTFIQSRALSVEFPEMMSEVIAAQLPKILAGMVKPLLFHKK

[5] = molecular target: C-C chemokine receptor type 5 (Homo sapiens, UniProt P51681); format: cell membranes, Membrane; settings: hek293; further: in other assays of this panel Not Active means under 50% inhibition at 10 µM
C-C chemokine receptor type 5, sequence (P51681 whole entry): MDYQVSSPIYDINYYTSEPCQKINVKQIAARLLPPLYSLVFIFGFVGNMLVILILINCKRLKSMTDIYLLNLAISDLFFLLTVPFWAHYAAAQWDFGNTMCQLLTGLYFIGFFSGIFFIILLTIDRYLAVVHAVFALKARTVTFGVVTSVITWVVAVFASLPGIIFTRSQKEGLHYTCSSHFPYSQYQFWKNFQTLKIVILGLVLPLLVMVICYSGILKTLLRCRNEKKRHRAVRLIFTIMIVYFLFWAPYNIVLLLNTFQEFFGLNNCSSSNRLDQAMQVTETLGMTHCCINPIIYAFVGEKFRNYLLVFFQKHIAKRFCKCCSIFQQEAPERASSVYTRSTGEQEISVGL

[6] = molecular target: 5-hydroxytryptamine receptor 1B (Rattus norvegicus, UniProt P28564); format: cell membranes, Wistar, Cerebral cortex, Membrane; further: in other assays of this panel Not Active means under 50% inhibition at 10 µM
5-hydroxytryptamine receptor 1B, sequence (P28564 whole entry): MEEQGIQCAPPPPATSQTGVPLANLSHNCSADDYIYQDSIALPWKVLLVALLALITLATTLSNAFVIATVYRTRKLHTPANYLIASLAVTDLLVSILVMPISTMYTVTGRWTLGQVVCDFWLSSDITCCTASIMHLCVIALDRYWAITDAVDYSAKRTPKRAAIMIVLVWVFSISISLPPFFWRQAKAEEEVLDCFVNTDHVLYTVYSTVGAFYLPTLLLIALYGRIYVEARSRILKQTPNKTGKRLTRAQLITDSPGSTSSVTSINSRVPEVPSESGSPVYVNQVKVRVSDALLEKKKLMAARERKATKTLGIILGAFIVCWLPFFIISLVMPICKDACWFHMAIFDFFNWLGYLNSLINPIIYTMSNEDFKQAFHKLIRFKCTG

SMILES | IC50 [1] | Ki [1] | IC50 [2] | IC50 [3] | IC50 [4] | IC50 [5] | IC50 [6] | IC50 ([4]; read-out: IC50) | Ki ([4]; read-out: Ki)
Nn1nnc2ccccc21 | Not Active | Not Active | Not Active | Not Active | Not Active | Not Active | Not Active | – | –
CC[C@]1(O)CC[C@H]2[C@@H]3CCC4=CCCC[C@@H]4[C@H]3CC[C@@]21C | Not Active | Not Active | Not Active | Not Active | – | Not Active | Not Active | 0.201 µM | 0.026 µM
N[C@@H](Cc1ccc(F)cc1)C(=O)O | Not Active | Not Active | Not Active | Not Active | Not Active | Not Active | Not Active | – | –
CCOC(=O)[C@H](CCc1ccccc1)N[C@@H](C)C(=O)N1Cc2ccccc2C[C@H]1C(=O)O | Not Active | Not Active | Not Active | Not Active | Not Active | Not Active | Not Active | – | –
O=C(c1ccccc1Cl)N1CCC(Cc2ccccc2)CC1 | Not Active | Not Active | Not Active | Not Active | Not Active | Not Active | Not Active | – | –
CCOC(=O)[C@H](CCc1ccccc1)N[C@@H](C)C(=O)N1CCC[C@H]1C(=O)O | Not Active | Not Active | Not Active | Not Active | – | Not Active | Not Active | – | –
Clc1cc2c(cc1Cl)Oc1cc(Cl)c(Cl)cc1O2 [2,3,7,8-TETRACHLORODIBENZO-P-DIOXIN] | Not Active | Not Active | Not Active | Not Active | Not Active | Not Active | Not Active | – | –
C=C1/C(=C\C=C2/CCC[C@]3(C)[C@@H]([C@H](C)CCCC(C)C)CC[C@@H]23)C[C@@H](O)C[C@@H]1O [ALFACALCIDOL] | Not Active | Not Active | Not Active | Not Active | Not Active | Not Active | Not Active | – | –
CCCCCC[C@H]1C(=O)O[C@H](C)[C@H](NC(=O)c2cccc(NC=O)c2O)C(=O)O[C@@H](C)[C@@H]1OC(=O)CC(C)C [ANTIMYCIN A] | Not Active | Not Active | Not Active | Not Active | Not Active | Not Active | Not Active | – | –
C[C@@H]1CC[C@H]2[C@@H](C)C(=O)O[C@@H]3O[C@@]4(C)CC[C@@H]1[C@]32OO4 [ARTEMISININ] | Not Active | Not Active | Not Active | Not Active | Not Active | Not Active | Not Active | – | –
CO[C@H]1[C@@H](O)[C@H](N)[C@@H](O[C@H]2O[C@H]([C@H](C)N)CC[C@H]2N)[C@H](O)[C@@H]1N(C)C(=O)CN [ASTROMICIN] | Not Active | Not Active | Not Active | Not Active | Not Active | Not Active | Not Active | – | –
[N-]=[N+]=CC(=O)OC[C@H](N)C(=O)O [AZASERINE] | Not Active | Not Active | Not Active | Not Active | Not Active | Not Active | Not Active | – | –
CC[C@H]1OC(=O)[C@H](C)[C@@H](O[C@H]2C[C@@](C)(OC)[C@@H](O)[C@H](C)O2)[C@H](C)[C@@H](O[C@@H]2O[C@H](C)C[C@H](N(C)C)[C@H]2O)[C@](C)(O)C[C@@H](C)CN(C)[C@H](C)[C@@H](O)[C@]1(C)O [AZITHROMYCIN] | Not Active | Not Active | Not Active | Not Active | Not Active | Not Active | Not Active | – | –
CC(C(=O)O)c1ccc(-c2ccccc2)c(F)c1 (configuration not stated) [FLURBIPROFEN] | Not Active | Not Active | Not Active | Not Active | – | Not Active | Not Active | – | –
